Reference: ChEMBL document CHEMBL1136860, “Synthesis and 5-lipoxygenase inhibitory activity of new cinnamoyl and caffeoyl clusters” (Bioorg Med Chem Lett, 2009)
pIC50: −log10 of the molar value. The source made the active and inactive calls. No cut-off for these calls is given here.

How the values were obtained:
Format in all cases: cell-based
[1] = biological target: T1, Polyunsaturated fatty acid 5-lipoxygenase (Homo sapiens, UniProt P09917); assay: Inhibition of human 5LOX expressed in HEK293 cells
T1 sequence (P09917 whole entry): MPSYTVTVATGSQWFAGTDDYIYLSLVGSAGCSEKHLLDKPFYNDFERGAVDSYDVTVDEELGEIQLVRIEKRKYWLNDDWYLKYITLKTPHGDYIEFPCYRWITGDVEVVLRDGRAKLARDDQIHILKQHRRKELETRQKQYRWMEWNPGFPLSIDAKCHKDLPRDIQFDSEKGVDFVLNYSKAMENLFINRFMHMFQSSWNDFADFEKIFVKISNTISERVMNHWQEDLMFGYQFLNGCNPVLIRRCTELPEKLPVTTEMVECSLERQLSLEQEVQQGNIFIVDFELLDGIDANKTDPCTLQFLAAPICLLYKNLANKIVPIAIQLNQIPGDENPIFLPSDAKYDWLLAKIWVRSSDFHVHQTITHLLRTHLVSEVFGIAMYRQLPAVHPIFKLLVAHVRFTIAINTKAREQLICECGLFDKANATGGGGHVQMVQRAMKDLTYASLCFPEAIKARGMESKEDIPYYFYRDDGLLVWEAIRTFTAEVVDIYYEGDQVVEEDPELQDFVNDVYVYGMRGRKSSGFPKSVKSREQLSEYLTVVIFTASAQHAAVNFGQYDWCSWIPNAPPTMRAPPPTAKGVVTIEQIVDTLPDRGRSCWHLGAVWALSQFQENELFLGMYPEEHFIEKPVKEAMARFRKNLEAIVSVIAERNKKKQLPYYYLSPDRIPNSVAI

[2] = biological target: T2, Polyunsaturated fatty acid 5-lipoxygenase (Homo sapiens) (UniProt P09917); assay: Ratio of IC50 of caffeic acid to IC50 of compound for human 5LOX expressed in HEK293 cells
T2 sequence (whole entry): T1 sequence (P09917 whole entry)

[3] = biological target: T2, Polyunsaturated fatty acid 5-lipoxygenase (Homo sapiens); assay: Inhibition of human 5LOX expressed in HEK293 cells at 1 uM

pIC50 [1] | Ratio IC50 [2] | Activity [3] | inhibition [3] | Compound
6.13 | 16.8 | Active | – | O=C(/C=C/c1ccc(O)c(O)c1)OCCn1cc(COC(=O)/C=C/c2ccc(O)c(O)c2)nn1
– | – | Active | – | O=C(/C=C/c1ccc(O)c(O)c1)OCCn1cc(COCC(COCc2cn(CCOC(=O)/C=C/c3ccc(O)c(O)c3)nn2)(COCc2cn(CCOC(=O)/C=C/c3ccc(O)c(O)c3)nn2)COCc2cn(CCOC(=O)/C=C/c3ccc(O)c(O)c3)nn2)nn1
6.17 | 36.7 | Active | – | O=C(/C=C/c1ccc(O)c(O)c1)OCCn1cc(COC(=O)/C=C/c2ccccc2)nn1
– | – | Active | – | O=C(/C=C/c1ccccc1)OCCn1cc(COC(=O)/C=C/c2ccc(O)c(O)c2)nn1
6.18 | 10.1 | – | 92% | O=C(/C=C/c1ccc(O)c(O)c1)OCc1cn(CC(Cn2cc(COC(=O)/C=C/c3ccc(O)c(O)c3)nn2)(Cn2cc(COC(=O)/C=C/c3ccc(O)c(O)c3)nn2)Cn2cc(COC(=O)/C=C/c3ccc(O)c(O)c3)nn2)nn1
6.10 | 10.5 | – | 91% | O=C(/C=C/c1ccc(O)c(O)c1)OCc1cn(CC(CO)(Cn2cc(COC(=O)/C=C/c3ccc(O)c(O)c3)nn2)Cn2cc(COC(=O)/C=C/c3ccc(O)c(O)c3)nn2)nn1
– | – | Active | – | O=C(/C=C/c1ccc(O)c(O)c1)OCc1cn(CC(COCC(Cn2cc(COC(=O)/C=C/c3ccc(O)c(O)c3)nn2)(Cn2cc(COC(=O)/C=C/c3ccc(O)c(O)c3)nn2)Cn2cc(COC(=O)/C=C/c3ccc(O)c(O)c3)nn2)(Cn2cc(COC(=O)/C=C/c3ccc(O)c(O)c3)nn2)Cn2cc(COC(=O)/C=C/c3ccc(O)c(O)c3)nn2)nn1
